In the kinase profiling compilation of Christmann-Franck et al. (2016):

What was measured:
Test in all cases: radiometric filter-binding kinase assay
INSRR (human) = INSRR (human) (UniProt P14616)
LCK (mouse) = settings: accession and sequence are those of the human protein
[1] = system: RPS6KB1 (human), P23443 [T412E]
MKNK1 (human) = MKNK1 (human) (UniProt Q9BUB5)
ROCK2 (rat) = settings: accession and sequence are those of the human protein
MAPK11 (human) = MAPK11 (human) (UniProt Q15759)
MAPK13 (human) = MAPK13 (human) (UniProt O15264)
FGFR1 (human) = FGFR1 (human) (UniProt P11362)
MAP2K1 (human) = MAP2K1 (human) (UniProt Q02750)
DYRK3 (human) = DYRK3 (human) (UniProt O43781)
PIM3 (human) = PIM3 (human) (UniProt Q86V86)
NEK2 (human) = NEK2 (human) (UniProt P51955)
GSK3B (human) = GSK3B (human) (UniProt P49841)
CSNK2A1 (human) = CSNK2A1 (human) (UniProt P68400)
EPHA2 (human) = EPHA2 (human) (UniProt P29317)
TBK1 (human) = TBK1 (human) (UniProt Q9UHD2)
PKN2 (human) = PKN2 (human) (UniProt Q16513)
MYLK (human) = MYLK (human) (UniProt Q15746)
[2] = system: AKT2 (human), P31751 [S474D]
PIM2 (human) = PIM2 (human) (UniProt Q9P1W9)
SRPK1 (human) = SRPK1 (human) (UniProt Q96SB4)
PHKG1 (human) = PHKG1 (human) (UniProt Q16816)
INSR (human) = INSR (human) (UniProt P06213)
SYK (human) = SYK (human) (UniProt P43405)
[3] = system: AKT1 (human), P31749 [S473D]
NEK6 (human) = NEK6 (human) (UniProt Q9HC98); settings: compound 1.0 µM

Chain of AKT2 (human), P31751 [S474D] (P31751 whole entry S474D, looked up): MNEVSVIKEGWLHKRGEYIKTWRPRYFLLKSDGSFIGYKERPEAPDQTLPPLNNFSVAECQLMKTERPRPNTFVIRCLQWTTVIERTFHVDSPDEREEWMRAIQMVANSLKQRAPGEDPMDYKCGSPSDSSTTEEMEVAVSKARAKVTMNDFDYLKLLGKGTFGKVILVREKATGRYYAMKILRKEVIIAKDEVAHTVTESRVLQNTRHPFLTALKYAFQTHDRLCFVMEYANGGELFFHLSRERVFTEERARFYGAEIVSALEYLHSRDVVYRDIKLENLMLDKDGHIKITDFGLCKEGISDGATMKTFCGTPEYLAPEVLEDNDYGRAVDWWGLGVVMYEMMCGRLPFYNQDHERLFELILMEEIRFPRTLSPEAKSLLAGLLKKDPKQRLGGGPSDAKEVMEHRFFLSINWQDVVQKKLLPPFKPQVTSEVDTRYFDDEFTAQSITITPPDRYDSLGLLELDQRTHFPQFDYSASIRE
Chain of PKN2 (human) (Q16513 whole entry, looked up): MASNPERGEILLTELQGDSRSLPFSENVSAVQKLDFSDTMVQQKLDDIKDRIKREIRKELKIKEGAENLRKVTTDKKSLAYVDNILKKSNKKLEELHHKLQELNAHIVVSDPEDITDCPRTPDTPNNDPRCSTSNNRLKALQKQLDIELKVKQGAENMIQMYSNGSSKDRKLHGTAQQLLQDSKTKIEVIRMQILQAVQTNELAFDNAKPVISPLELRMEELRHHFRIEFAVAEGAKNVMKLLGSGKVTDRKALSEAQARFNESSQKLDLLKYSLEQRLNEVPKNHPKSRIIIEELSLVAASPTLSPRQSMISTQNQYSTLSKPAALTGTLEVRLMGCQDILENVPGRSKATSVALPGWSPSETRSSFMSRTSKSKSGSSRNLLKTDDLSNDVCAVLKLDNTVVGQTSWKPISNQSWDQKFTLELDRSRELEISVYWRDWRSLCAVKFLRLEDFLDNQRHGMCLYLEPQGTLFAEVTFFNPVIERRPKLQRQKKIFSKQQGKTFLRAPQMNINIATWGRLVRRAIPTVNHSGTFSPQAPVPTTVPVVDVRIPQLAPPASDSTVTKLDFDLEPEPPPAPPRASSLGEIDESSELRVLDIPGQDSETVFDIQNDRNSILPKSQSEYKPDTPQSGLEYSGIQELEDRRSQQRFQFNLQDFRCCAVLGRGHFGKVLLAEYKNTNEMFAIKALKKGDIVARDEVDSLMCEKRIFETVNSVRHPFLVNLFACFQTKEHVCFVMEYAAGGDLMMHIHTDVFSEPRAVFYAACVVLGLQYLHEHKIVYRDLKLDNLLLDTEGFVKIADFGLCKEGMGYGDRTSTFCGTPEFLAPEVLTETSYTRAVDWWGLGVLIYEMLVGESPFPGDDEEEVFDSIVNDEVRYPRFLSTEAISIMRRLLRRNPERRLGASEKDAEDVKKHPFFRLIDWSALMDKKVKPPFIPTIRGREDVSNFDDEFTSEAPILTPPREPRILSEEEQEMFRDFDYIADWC
Chain of PHKG1 (human) (Q16816 whole entry, looked up): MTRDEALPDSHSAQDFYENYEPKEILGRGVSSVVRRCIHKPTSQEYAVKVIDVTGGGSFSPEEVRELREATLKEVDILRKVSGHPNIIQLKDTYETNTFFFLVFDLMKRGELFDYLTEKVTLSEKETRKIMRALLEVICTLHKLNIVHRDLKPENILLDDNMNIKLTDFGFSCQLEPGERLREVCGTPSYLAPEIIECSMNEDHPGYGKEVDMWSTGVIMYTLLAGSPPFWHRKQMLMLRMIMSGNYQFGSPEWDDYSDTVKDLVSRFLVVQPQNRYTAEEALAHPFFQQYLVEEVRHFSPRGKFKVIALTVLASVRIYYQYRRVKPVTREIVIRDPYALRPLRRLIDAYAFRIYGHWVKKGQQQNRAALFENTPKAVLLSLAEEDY
Chain of PIM2 (human) (Q9P1W9 whole entry, looked up): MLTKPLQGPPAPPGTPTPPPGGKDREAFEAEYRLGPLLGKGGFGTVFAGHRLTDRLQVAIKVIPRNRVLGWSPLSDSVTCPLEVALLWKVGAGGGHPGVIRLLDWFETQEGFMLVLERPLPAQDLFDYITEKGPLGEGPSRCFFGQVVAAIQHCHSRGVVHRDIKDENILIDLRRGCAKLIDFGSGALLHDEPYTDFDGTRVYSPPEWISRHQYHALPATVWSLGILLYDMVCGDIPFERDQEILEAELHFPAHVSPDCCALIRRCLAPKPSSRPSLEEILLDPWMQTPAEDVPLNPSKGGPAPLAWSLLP
Chain of INSRR (human) (P14616 whole entry, looked up): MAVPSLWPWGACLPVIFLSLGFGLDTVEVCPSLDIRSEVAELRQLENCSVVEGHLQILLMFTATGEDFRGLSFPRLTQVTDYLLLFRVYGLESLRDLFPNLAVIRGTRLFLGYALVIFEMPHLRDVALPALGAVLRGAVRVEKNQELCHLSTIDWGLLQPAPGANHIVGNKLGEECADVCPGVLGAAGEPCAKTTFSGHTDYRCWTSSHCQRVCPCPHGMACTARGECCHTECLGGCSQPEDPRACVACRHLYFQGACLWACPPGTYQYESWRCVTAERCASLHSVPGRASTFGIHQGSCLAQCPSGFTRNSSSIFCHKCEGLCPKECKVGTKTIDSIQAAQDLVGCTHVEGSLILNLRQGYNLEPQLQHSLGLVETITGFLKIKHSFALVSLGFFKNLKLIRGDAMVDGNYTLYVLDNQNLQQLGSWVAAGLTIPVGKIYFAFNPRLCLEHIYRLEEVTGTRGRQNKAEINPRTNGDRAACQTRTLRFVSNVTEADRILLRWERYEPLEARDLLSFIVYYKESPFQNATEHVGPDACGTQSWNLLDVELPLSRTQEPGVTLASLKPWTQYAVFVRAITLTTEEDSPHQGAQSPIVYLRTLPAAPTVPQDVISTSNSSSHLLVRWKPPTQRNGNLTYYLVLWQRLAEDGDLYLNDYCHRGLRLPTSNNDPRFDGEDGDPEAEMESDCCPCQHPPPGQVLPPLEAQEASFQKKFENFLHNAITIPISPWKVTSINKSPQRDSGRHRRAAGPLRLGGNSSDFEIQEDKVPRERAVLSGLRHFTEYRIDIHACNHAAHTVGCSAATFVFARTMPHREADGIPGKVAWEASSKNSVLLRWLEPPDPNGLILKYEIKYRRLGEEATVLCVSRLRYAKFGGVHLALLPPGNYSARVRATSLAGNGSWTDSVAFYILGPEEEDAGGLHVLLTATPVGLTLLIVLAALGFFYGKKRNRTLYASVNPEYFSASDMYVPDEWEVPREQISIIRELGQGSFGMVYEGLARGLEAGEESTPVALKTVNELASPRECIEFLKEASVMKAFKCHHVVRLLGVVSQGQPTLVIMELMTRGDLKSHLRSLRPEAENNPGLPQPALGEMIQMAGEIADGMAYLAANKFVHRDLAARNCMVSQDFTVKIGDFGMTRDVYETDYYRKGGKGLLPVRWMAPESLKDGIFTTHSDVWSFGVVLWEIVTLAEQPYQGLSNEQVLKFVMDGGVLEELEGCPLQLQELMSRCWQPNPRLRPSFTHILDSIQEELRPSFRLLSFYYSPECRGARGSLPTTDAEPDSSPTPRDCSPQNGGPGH
Chain of MAPK11 (human) (Q15759 whole entry, looked up): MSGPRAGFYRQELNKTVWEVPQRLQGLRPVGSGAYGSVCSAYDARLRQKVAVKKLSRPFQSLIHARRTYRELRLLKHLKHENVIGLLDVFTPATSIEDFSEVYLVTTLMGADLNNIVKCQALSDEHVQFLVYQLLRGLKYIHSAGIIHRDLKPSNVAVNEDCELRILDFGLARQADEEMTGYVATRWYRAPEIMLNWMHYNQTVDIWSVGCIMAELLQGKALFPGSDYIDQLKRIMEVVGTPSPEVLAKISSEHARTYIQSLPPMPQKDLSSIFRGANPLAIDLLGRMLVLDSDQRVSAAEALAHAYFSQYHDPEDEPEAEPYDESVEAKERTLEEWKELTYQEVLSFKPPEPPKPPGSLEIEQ
Chain of EPHA2 (human) (P29317 whole entry, looked up): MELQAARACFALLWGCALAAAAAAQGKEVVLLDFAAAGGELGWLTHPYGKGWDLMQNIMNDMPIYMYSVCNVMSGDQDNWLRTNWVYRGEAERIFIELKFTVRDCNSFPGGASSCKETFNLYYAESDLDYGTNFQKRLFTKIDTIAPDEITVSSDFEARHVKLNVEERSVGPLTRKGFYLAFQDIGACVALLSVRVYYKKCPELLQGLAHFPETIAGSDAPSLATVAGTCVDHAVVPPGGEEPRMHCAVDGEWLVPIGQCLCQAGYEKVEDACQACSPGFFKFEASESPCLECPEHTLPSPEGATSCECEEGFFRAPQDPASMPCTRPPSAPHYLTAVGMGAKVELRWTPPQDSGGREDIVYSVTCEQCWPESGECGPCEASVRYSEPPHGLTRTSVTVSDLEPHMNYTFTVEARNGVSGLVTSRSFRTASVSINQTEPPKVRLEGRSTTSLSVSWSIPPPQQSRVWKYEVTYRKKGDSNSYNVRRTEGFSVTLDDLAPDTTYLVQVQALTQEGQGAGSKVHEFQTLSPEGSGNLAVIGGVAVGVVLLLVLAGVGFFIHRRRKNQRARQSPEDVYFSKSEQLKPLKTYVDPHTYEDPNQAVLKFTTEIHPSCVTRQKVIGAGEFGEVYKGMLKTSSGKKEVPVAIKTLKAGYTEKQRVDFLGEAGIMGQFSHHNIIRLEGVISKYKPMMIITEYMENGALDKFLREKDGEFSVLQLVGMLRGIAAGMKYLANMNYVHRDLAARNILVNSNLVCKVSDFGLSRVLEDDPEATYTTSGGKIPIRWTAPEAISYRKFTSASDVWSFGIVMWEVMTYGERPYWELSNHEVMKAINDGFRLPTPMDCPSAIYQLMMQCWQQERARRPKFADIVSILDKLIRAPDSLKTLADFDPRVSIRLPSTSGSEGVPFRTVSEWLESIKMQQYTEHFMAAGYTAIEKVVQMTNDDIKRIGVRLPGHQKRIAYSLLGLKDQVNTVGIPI

Cc1cc(SCc2sc(-c3ccc(C(F)(F)F)cc3)nc2C)ccc1OCC(=O)O
residual activity (INSRR (human); compound 1.0 µM): 81%
residual activity (INSRR (human); compound 10.0 µM): 95%
residual activity (LCK (mouse); compound 1.0 µM): 106%
residual activity (LCK (mouse); compound 10.0 µM): 98%
residual activity ([1]; compound 1.0 µM): 98%
residual activity ([1]; compound 10.0 µM): 105%
residual activity (MKNK1 (human); compound 1.0 µM): 89%
residual activity (MKNK1 (human); compound 10.0 µM): 79%
residual activity (ROCK2 (rat); compound 1.0 µM): 99%
residual activity (ROCK2 (rat); compound 10.0 µM): 91%
residual activity (MAPK11 (human); compound 1.0 µM): 91%
residual activity (MAPK11 (human); compound 10.0 µM): 94%
residual activity (MAPK13 (human); compound 1.0 µM): 102%
residual activity (MAPK13 (human); compound 10.0 µM): 105%
residual activity (FGFR1 (human); compound 1.0 µM): 100%
residual activity (FGFR1 (human); compound 10.0 µM): 81%
residual activity (MAP2K1 (human); compound 1.0 µM): 105%
residual activity (MAP2K1 (human); compound 10.0 µM): 90%
residual activity (DYRK3 (human); compound 1.0 µM): 83%
residual activity (DYRK3 (human); compound 10.0 µM): 81%
residual activity (PIM3 (human); compound 1.0 µM): 86%
residual activity (PIM3 (human); compound 10.0 µM): 72%
residual activity (NEK2 (human); compound 1.0 µM): 94%
residual activity (NEK2 (human); compound 10.0 µM): 153%
residual activity (GSK3B (human); compound 1.0 µM): 87%
residual activity (GSK3B (human); compound 10.0 µM): 83%
residual activity (CSNK2A1 (human); compound 1.0 µM): 84%
residual activity (CSNK2A1 (human); compound 10.0 µM): 79%
residual activity (EPHA2 (human); compound 1.0 µM): 103%
residual activity (EPHA2 (human); compound 10.0 µM): 113%
residual activity (TBK1 (human); compound 1.0 µM): 102%
residual activity (TBK1 (human); compound 10.0 µM): 88%
residual activity (PKN2 (human); compound 1.0 µM): 102%
residual activity (PKN2 (human); compound 10.0 µM): 92%
residual activity (MYLK (human); compound 1.0 µM): 92%
residual activity (MYLK (human); compound 10.0 µM): 74%
residual activity ([2]; compound 1.0 µM): 103%
residual activity ([2]; compound 10.0 µM): 103%
residual activity (PIM2 (human); compound 1.0 µM): 99%
residual activity (PIM2 (human); compound 10.0 µM): 106%
residual activity (SRPK1 (human); compound 1.0 µM): 96%
residual activity (SRPK1 (human); compound 10.0 µM): 87%
residual activity (PHKG1 (human); compound 1.0 µM): 109%
residual activity (PHKG1 (human); compound 10.0 µM): 96%
residual activity (INSR (human); compound 1.0 µM): 107%
residual activity (INSR (human); compound 10.0 µM): 103%
residual activity (SYK (human); compound 1.0 µM): 103%
residual activity (SYK (human); compound 10.0 µM): 85%
residual activity ([3]; compound 1.0 µM): 107%
residual activity ([3]; compound 10.0 µM): 105%
residual activity (NEK6 (human)): 101%
